Experiments:
human mPGES-1 = human mPGES-1 (Homo sapiens (Human), UniProt O14684); assay: mPGES-1 inhibitory activity test; assay type: biochemical; settings: for IC50: microsomes of CHO-K1 cells expressing human mPGES-1, PGH2 1 μM, PGE2 by HTRF, read-out: mPGES-1 inhibition (IC50 nM); for inhibition at 0.01 µM: 10 nM test compound; for inhibition at 0.1 µM: 100 nM test compound
Description: mPGES-1 microsomal specimens were prepared by transiently transfecting CHO-K1 cells (DS Pharma Biomedical Co. Ltd) with a plasmid encoding human mPGES-1 cDNA using FuGENE 6 Transfection Reagent (Promega). The prepared mPGES-1 microsome specimens were diluted in potassium phosphate buffer of pH 7.4 comprising 2.5 mM reduced glutathione (Sigma-Aldrich), DMSO solution of a test compound or DMSO was added to a final concentration of 1% of DMSO, and then incubated at 4° C. for 20 minutes. The enzymatic reaction was then initiated by adding a solution of PGH2 (Cayman chemical) substrate of a final concentration 1 μM and incubated at 4° C. for 60 seconds. The reaction was terminated by adding a solution of ferric chloride (STREM CHEMICALS) and citric acid (Wako Pure Chemical Industries) salt to a final concentration of 5 mg/mL and 250 mM, respectively. The formed PGE2 was quantified using the HTRF kit (Cisbio International). Solutions without the test compound were used as positive controls, and solutions without the test compound and microsomal specimens were used as negative controls. 100% activity was defined as production of PGE2 in the positive control minus that in the negative control. The percentage inhibition of production of PGE2 at final concentrations of 10 nM and 100 nM of the test compound was then calculated, or IC50 values were determined using standard methods.

human A549 cells = assay: Inhibition test of PGE2 production using human A549 cells; assay type: cell-based; settings: IL-1β stimulated A549 cells, 24 h, PGE2 by HTRF, read-out: A549 cell inhibition of PGE2 production IC50
Description: 100 μL of RPMI medium (Sigma) comprising 10% FBS and human A549 cells was seeded in a 96-well plate to […] cells per well, and incubated overnight. The medium was then removed and washed with phosphate-buffered saline, and added to a DMSO solution of the test compound or RPMI medium comprising 3% FBS with DMSO to a final concentration of 0.1% DMSO. After incubation for 60 minutes, IL-1P (5 ng/well, BioLegend) was added to the solution. After incubation at 37° C. for 24 h, PGE2 in the medium was quantified using the HTRF kit (Cisbio International) and PGF2a was also quantified using the EIA kit (Cayman chemical). Solutions without the test compound were used as positive controls, and solutions without the test compound and IL-1β were used as negative controls. 100% activity was defined as production of PGE2 and PGF2a in the positive control minus those in the negative control. IC50 values were then determined using standard methods.

Sequence of human mPGES-1 (O14684 whole entry): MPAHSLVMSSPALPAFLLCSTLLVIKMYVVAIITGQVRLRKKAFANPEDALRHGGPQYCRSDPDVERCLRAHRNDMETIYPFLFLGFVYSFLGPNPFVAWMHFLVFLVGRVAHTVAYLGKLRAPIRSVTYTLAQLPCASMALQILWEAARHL

Compound: CC(C)(C)C(=O)NCc1ccc(Cl)c(C(=O)Nc2cccc3c2cnn3C2CCCCC2)c1 [Example 98, 2-Chloro-N-(1-cyclohexyl-1H-indazol-4-yl)-5-{[(2,2-dimethylpropanoyl)amino]methyl}benzamide]
- IC50 (human mPGES-1): 9 nM
- IC50 (human A549 cells): 1.6 nM

Compound: CC(C)(C)CC(=O)NCc1ccc(Cl)c(C(=O)Nc2cccc3c2cnn3-c2ccc(OC(F)(F)F)cc2)c1 [Example 114, 2-Chloro-5-{[(3,3-dimethylbutanoyl)amino]methyl}-N-{1-[4-(trifluoromethoxy)phenyl]-1H-indazol-4-yl}benzamide]
- inhibition at 0.01 µM (human mPGES-1): 87%
- IC50 (human A549 cells): 1.9 nM

Compound: CC(C)(C)CC(=O)NCc1ccc(Cl)c(C(=O)Nc2cccc3c2cnn3-c2ccc(C(F)(F)F)cc2)c1 [Example 20, 2-Chloro-5-{[(3,3-dimethylbutanoyl)amino]methyl}-N-{1-[4-(trifluoromethyl)phenyl]-1H-indazol-4-yl}benzamide]
- IC50 (human mPGES-1): < 1 nM
- IC50 (human A549 cells): 2.8 nM

Compound: CC(C)(C)CC(=O)NCc1ccc(Cl)c(C(=O)Nc2cccc3c2cnn3-c2ccc(F)cc2)c1 [Example 151, 2-Chloro-5-{[(3,3-dimethylbutanoyl)amino]methyl}-N-[1-(4-fluorophenyl)-1H-indazol-4-yl]benzamide]
- inhibition at 0.01 µM (human mPGES-1): 100%
- IC50 (human A549 cells): 14.3 nM

Compound: COc1ccc(-n2ncc3c(NC(=O)c4cc(CNC(=O)CC(C)(C)C)ccc4Cl)cccc32)cc1C(F)(F)F [Example 261, 2-Chloro-5-{[(3,3-dimethylbutanoyl)amino]methyl}-N-{1-[4-methoxy-3-(trifluoromethyl)phenyl]-1H-indazol-4-yl}benzamide]
- inhibition at 0.01 µM (human mPGES-1): 95%
- inhibition at 0.1 µM (human mPGES-1): 100%
- IC50 (human A549 cells): 1.4 nM

Compound: CC(C)(C)OC(=O)N1CCC(n2ncc3c(NC(=O)c4cc(CNC(=O)C(C)(C)C)ccc4Cl)cccc32)CC1 [Example 103, tert-Butyl 4-(4-{[(2-chloro-5-{[(2,2-dimethylpropanoyl)amino]methyl}phenyl)carbonyl]amino}-1H-indazol-1-yl)piperidine-1-carboxylate]
- IC50 (human mPGES-1): 2.7 nM
- IC50 (human A549 cells): 4 nM

Compound: CC(C)(C)C(=O)NCc1ccc(Cl)c(C(=O)Nc2cccc3c2cnn3C2CC2)c1 [Example 284, 2-Chloro-5-{[(2,2-dimethylpropanoyl)amino]methyl}-N-(1-cyclopropyl-1H-indazol-4-yl)benzamide]
- inhibition at 0.01 µM (human mPGES-1): 79%
- IC50 (human A549 cells): 9.6 nM

Compound: O=C(Nc1cccc2c1cnn2-c1ccc(C(F)(F)F)nc1)c1cc(CNC(=O)C2CC2)ccc1Cl [Example 12, 2-Chloro-5-{[(cyclopropylcarbonyl)amino]methyl}-N-{1-[6-(trifluoromethyl)pyridin-3-yl]-1H-indazol-4-yl}benzamide]
- IC50 (human mPGES-1): 2.7 nM
- IC50 (human A549 cells): 1.1 nM

Compound: Cc1ccc(-n2ncc3c(NC(=O)c4cc(CNC(=O)C5CC5)ccc4Cl)cccc32)cc1 [Example 6, 2-Chloro-5-{[(cyclopropylcarbonyl)amino]methyl}-N-[1-(4-methylphenyl)-1H-indazol-4-yl]benzamide]
- IC50 (human mPGES-1): 1.3 nM
- IC50 (human A549 cells): 0.6 nM

Compound: CCC(O)(CC)C(=O)NCc1ccc(Cl)c(C(=O)Nc2cccc3c2cnn3-c2ccc(C(F)(F)F)cc2)c1 [Example 41, 2-Chloro-5-{[(2-ethyl-2-hydroxybutanoyl)amino]methyl}-N-{1-[4-(trifluoromethyl)phenyl]-1H-indazol-4-yl}benzamide]
- IC50 (human mPGES-1): 1 nM
- IC50 (human A549 cells): 13.7 nM

Compound: CC(C)(CO)C(=O)NCc1ccc(Cl)c(C(=O)Nc2cccc3c2cnn3-c2cscn2)c1 [Example 192, 2-Chloro-5-{[(3-hydroxy-2,2-dimethylpropanoyl)amino]methyl}-N-[1-(1,3-thiazol-4-yl)-1H-indazol-4-yl]benzamide]
- inhibition at 0.01 µM (human mPGES-1): 70%
- inhibition at 0.1 µM (human mPGES-1): 90%
- IC50 (human A549 cells): 31.4 nM

Compound: O=C(Nc1cccc2c1cnn2-c1ccc(C(F)(F)F)cc1)c1cc(CNC(=O)C(F)(F)F)ccc1Cl [Example 17, 2-Chloro-5-{[(trifluoroacetyl)amino]methyl}-N-{1-[4-(trifluoromethyl)phenyl]-1H-indazol-4-yl}benzamide]
- IC50 (human mPGES-1): 17 nM
- IC50 (human A549 cells): 1.6 nM

Compound: Cc1c(Cl)cccc1-n1ncc2c(NC(=O)c3cc(CNC(=O)C4CC4)ccc3Cl)cccc21 [Example 15, 2-Chloro-N-[1-(3-chloro-2-methylphenyl)-1H-indazol-4-yl]-5-{[(cyclopropylcarbonyl)amino]methyl}benzamide]
- IC50 (human mPGES-1): 5.6 nM
- IC50 (human A549 cells): 7.8 nM

Compound: CCCC(=O)NCc1ccc(Cl)c(C(=O)Nc2cccc3c2cnn3-c2ccc(C(F)(F)F)cc2)c1 [Example 43, 5-[(Butanoylamino)methyl]-2-chloro-N-{1-[4-(trifluoromethyl)phenyl]-1H-indazol-4-yl}benzamide]
- IC50 (human mPGES-1): 2.3 nM
- IC50 (human A549 cells): 13.5 nM

Compound: Cc1ccc(-n2ncc3c(NC(=O)c4cc(CNS(=O)(=O)C5CC5)ccc4Cl)cccc32)nn1 [Example 253, 2-Chloro-5-{[(cyclopropylsulfonyl)amino]methyl}-N-[1-(6-methylpyridazin-3-yl)-1H-indazol-4-yl]benzamide]
- inhibition at 0.01 µM (human mPGES-1): 67%
- inhibition at 0.1 µM (human mPGES-1): 75%
- IC50 (human A549 cells): 299 nM

Compound: CC(C)n1ncc2c(NC(=O)c3cc(CNC(=O)C(C)(C)C)ccc3Cl)cccc21 [Example 102, 2-Chloro-5-{[(2,2-dimethylpropanoyl)amino]methyl}-N-[1-(propan-2-yl)-1H-indazol-4-yl]benzamide]
- IC50 (human mPGES-1): 3.1 nM
- IC50 (human A549 cells): 20.7 nM

Compound: CC(C)n1ncc2c(NC(=O)c3cc(CNC(=O)C4CCCC4)ccc3Cl)cccc21 [Example 180, 2-Chloro-5-{[(cyclopentylcarbonyl)amino]methyl}-N-[1-(propan-2-yl)-1H-indazol-4-yl]benzamide]
- inhibition at 0.01 µM (human mPGES-1): 75%
- IC50 (human A549 cells): 40.6 nM

Compound: CC(C)(C)C(=O)NCc1ccc(Cl)c(C(=O)Nc2cccc3c2cnn3Cc2cccc(C(F)(F)F)c2)c1 [Example 94, 2-Chloro-5-{[(2,2-dimethylpropanoyl)amino]methyl}-N-{1-[3-(trifluoromethyl)benzyl]-1H-indazol-4-yl}benzamide]
- IC50 (human mPGES-1): 10 nM
- IC50 (human A549 cells): 9.2 nM

Compound: CCn1ncc2c(NC(=O)c3cc(CNC(=O)C4(C(F)(F)F)CC4)ccc3Cl)cccc21 [Example 212, 2-Chloro-N-(1-ethyl-1H-indazol-4-yl)-5-[({[1-(trifluoromethyl)cyclopropyl]carbonyl}amino)methyl]benzamide]
- inhibition at 0.01 µM (human mPGES-1): 71%
- IC50 (human A549 cells): 17.3 nM

Compound: CC(C)(C)C(=O)NCc1ccc(Cl)c(C(=O)Nc2cccc3c2cnn3-c2cccc(OC(F)(F)F)c2)c1 [Example 71, 2-Chloro-5-{[(2,2-dimethylpropanoyl)amino]methyl}-N-{1-[3-(trifluoromethoxy)phenyl]-1H-indazol-4-yl}benzamide]
- IC50 (human mPGES-1): 0.1 nM
- IC50 (human A549 cells): 0.6 nM

Compound: O=C(Nc1cccc2c1cnn2-c1cncc(C(F)(F)F)c1)c1cc(CNS(=O)(=O)C2CC2)ccc1Cl [Example 172, 2-Chloro-5-{[(cyclopropylsulfonyl)amino]methyl}-N-{l-[5-(trifluoromethyl)pyridin-3-yl]-1H-indazol-4-yl}benzamide]
- inhibition at 0.01 µM (human mPGES-1): 100%
- IC50 (human A549 cells): 5.6 nM

Compound: CC(C)(C)CC(=O)NCc1ccc(Cl)c(C(=O)Nc2cccc3c2cnn3-c2cccc(OC(F)F)c2)c1 [Example 138, 2-Chloro-N-{1-[3-(difluoromethoxy)phenyl]-1H-indazol-4-yl}-5-{[(3,3-dimethylbutanoyl)amino]methyl}benzamide]
- inhibition at 0.01 µM (human mPGES-1): 61%
- inhibition at 0.1 µM (human mPGES-1): 100%
- IC50 (human A549 cells): 6 nM
